{
  "source": "patent US4942171A",
  "about": "“The compound, 6-(1-imidazolyl methyl)-5,6,7,8-tetrahydronaphthalene-2-carboxylic acid and salts thereof having antidiabetic activity” (Daiichi Seiyaku Co., Ltd., priority 1987, dated 1990)",
  "key": {"[1]": {"test_system": "spontaneous hypertensive male rats (SHR)", "assay": "Efficacy in Diabetic Model: Determination of Blood Sugar Level, non-diabetic SHR", "format": "in vivo, rat", "settings": "for Blood Sugar Level: SHR (n = 8), mean ± S.E.", "experimental": "(§1) 5-Week old spontaneous hypertensive male rats (SHR), available from Nippon Charles River, were used. Streptozotocin (STZ) was dissolved in a 0.1M citrate buffer solution (pH 4.5) and injected into the tail vein of the rats at a dose level of 50 mg/kg to prepare diabetic rats. For control, rats received 1 ml/kg of the citrate buffer solution alone through administration to the tail vein. After one week from the STZ administration, blood was taken from the tail vein of the unanesthetized rats, and the blood sugar level was determined. Those rats having a blood sugar level of 300 mg/dl or higher were used as diabetic rats.\n(§2) 6-(1-Imidazolylmethyl)-5,6,7,8-tetrahydronaphthalene- 2-carboxylic acid hydrochloride hemihydrate (hereinafter referred to as Compound A) was dissolved in distilled water and administered orally to the test animals at a dose level of 1 mg/kg/day or 10 mg/kg/day for 5 consecutive months from one week after the administration of STZ or a citrate buffer solution.\n(§3) Just before the administration of Compound A, blood was sampled from the tail vein of the rats without any restriction of diet to determine the blood sugar level using a commercial glucose assay kit (Trade name: New Blood Sugar Test, produced by Boehringer Mannheim Co., Ltd., West Germany). The results are shown in Table 1, expressed as mean ±S.E."}, "diabetic SHR": {"test_system": "diabetic SHR", "assay": "Determination of Glucose Tolerance in diabetic SHR", "format": "in vivo, rat", "settings": "for Blood Sugar Level (Effect on Glucose Tolerance): 3 months", "experimental": "as §1, §2\nAfter 3 months from the start of the administration of Compound A, the rats were fasted for 18 hours. Glucose was administered orally to the rats at a dose level of 2 g/kg. Blood was sampled from the tail vein of the rats just before the administration of glucose and at 1 hour and 2 hours after the administration to determine the blood sugar lever using the above method. The result was shown in Table 2, expressed as mean +S.E."}, "[2]": {"test_system": "streptozotocin-induced diabetic spontaneous hypertensive rats", "assay": "Efficacy in Diabetic Model: Determination of Blood Sugar Level, STZ-induced diabetic SHR", "format": "in vivo, rat", "settings": "for Blood Sugar Level: Diabetic SHR (n = 7), mean ± S.E.", "experimental": "as §1, §2, §3"}, "Acute Toxicity in Rats": {"assay": "Acute Toxicity in Rats", "settings": "rat, in vivo", "from_the_text": "Acute toxicities of Compound A in rats through oral administration or intravenous injection were as follows."}, "[3]": {"settings": "1 mg/kg/day p.o., 0 weeks (before administration)"}, "[4]": {"settings": "10 mg/kg/day p.o., 0 weeks (before administration)"}},
  "note": "Counter-ions that a name gives are not always drawn.",
  "data": [
    {"molecule": "O=C(O)c1ccc2c(c1)CCC(Cn1ccnc1)C2", "note": "(centres unmarked) [Compound A, 6-(1-Imidazolylmethyl)-5,6,7,8-tetrahydronaphthalene-2-carboxylic acid hydrochloride hemihydrate]", "values": [
      {"measurement": "Blood Sugar Level", "setting": "[1]; [3]", "value": 100.7, "unit": "mg/dL"},
      {"measurement": "Blood Sugar Level", "setting": "[1]; 1 mg/kg/day p.o., 2 weeks", "value": 95.4, "unit": "mg/dL"},
      {"measurement": "Blood Sugar Level", "setting": "[1]; 1 mg/kg/day p.o., 8 weeks", "value": 94.5, "unit": "mg/dL"},
      {"measurement": "Blood Sugar Level", "setting": "[1]; [4]", "value": 108.0, "unit": "mg/dL"},
      {"measurement": "Blood Sugar Level", "setting": "[1]; 10 mg/kg/day p.o., 2 weeks", "value": 90.9, "unit": "mg/dL"},
      {"measurement": "Blood Sugar Level", "setting": "[1]; 10 mg/kg/day p.o., 8 weeks", "value": 93.2, "unit": "mg/dL"},
      {"measurement": "effect on blood sugar level in SHR", "setting": "[1]; non-diabetic SHR", "value": "not affected"},
      {"measurement": "Blood Sugar Level (Effect on Glucose Tolerance)", "setting": "diabetic SHR; 1 mg/kg/day p.o. (n = 7), 1 hour after glucose load (2 g/kg p.o.), control 329.5", "value": 255.4, "unit": "mg/dL"},
      {"measurement": "Blood Sugar Level (Effect on Glucose Tolerance)", "setting": "diabetic SHR; 1 mg/kg/day p.o. (n = 7), 2 hours after glucose load (2 g/kg p.o.), control 280.8", "value": 167.3, "unit": "mg/dL"},
      {"measurement": "Blood Sugar Level (Effect on Glucose Tolerance)", "setting": "diabetic SHR; 1 mg/kg/day p.o. (n = 7), just before the glucose load (2 g/kg p.o.), control 178.5", "value": 136.8, "unit": "mg/dL"},
      {"measurement": "Blood Sugar Level (Effect on Glucose Tolerance)", "setting": "diabetic SHR; 10 mg/kg/day p.o. (n = 8), 1 hour after glucose load (2 g/kg p.o.), control 329.5, *P < 0.05 vs control", "value": 202.4, "unit": "mg/dL"},
      {"measurement": "Blood Sugar Level (Effect on Glucose Tolerance)", "setting": "diabetic SHR; 10 mg/kg/day p.o. (n = 8), 2 hours after glucose load (2 g/kg p.o.), control 280.8", "value": 137.1, "unit": "mg/dL"},
      {"measurement": "Blood Sugar Level (Effect on Glucose Tolerance)", "setting": "diabetic SHR; 10 mg/kg/day p.o. (n = 8), just before the glucose load (2 g/kg p.o.), control 178.5", "value": 105.1, "unit": "mg/dL"},
      {"measurement": "glucose tolerance in the diabetic SHR", "setting": "diabetic SHR; rat, in vivo", "value": "improved the glucose tolerance"},
      {"measurement": "effect on blood sugar level of diabetic SHR", "setting": "[2]; 8 weeks after the start of administration", "value": "significantly lowered the blood sugar level"},
      {"measurement": "Blood Sugar Level", "setting": "[2]; [3]", "value": 374.6, "unit": "mg/dL"},
      {"measurement": "Blood Sugar Level", "setting": "[2]; 1 mg/kg/day p.o., 2 weeks, control 481.5", "value": 406.3, "unit": "mg/dL"},
      {"measurement": "Blood Sugar Level", "setting": "[2]; 1 mg/kg/day p.o., 8 weeks, control 544.2", "value": 445.0, "unit": "mg/dL"},
      {"measurement": "Blood Sugar Level", "setting": "[2]; [4]", "value": 361.4, "unit": "mg/dL"},
      {"measurement": "Blood Sugar Level", "setting": "[2]; 10 mg/kg/day p.o., 2 weeks, control 481.5, *P < 0.05 vs control", "value": 365.2, "unit": "mg/dL"},
      {"measurement": "Blood Sugar Level", "setting": "[2]; 10 mg/kg/day p.o., 8 weeks, control 544.2, **P < 0.01 vs control", "value": 277.3, "unit": "mg/dL"},
      {"measurement": "effect on high blood sugar level of diabetic SHR", "setting": "[2]; from 2 weeks after the start of administration", "value": "tendency to lower the high blood sugar level"},
      {"measurement": "LD50", "setting": "Acute Toxicity in Rats; iv, female rats", "value": 783, "unit": "mg/kg"},
      {"measurement": "LD50", "setting": "Acute Toxicity in Rats; iv, male rats", "value": 807, "unit": "mg/kg"},
      {"measurement": "LD50", "setting": "Acute Toxicity in Rats; po, female rats", "value": 1990, "unit": "mg/kg"},
      {"measurement": "LD50", "setting": "Acute Toxicity in Rats; po, male rats", "value": 2440, "unit": "mg/kg"}
    ]}
  ]
}
